Test results as given in patent US20230310445A1, “LOX ENZYME INHIBITING METHODS AND COMPOSITIONS” (ANOVIA BIOSCIENCES, INC., priority 2020, published 2023).

Experiments:
[1] = target: T1, Recombinant human LOXL2 (lysyl oxidase like 2) (Homo sapiens, UniProt Q9Y4K0); experiment: LOXL2 inhibition assay (fluorometric, cadaverine/Amplex Red/HRP); type: biochemical; conditions: IC50 class; recombinant human LOXL2, cadaverine substrate; read-out: Activity Range LOXL2
T1 construct: purchased R&D systems
T1 sequence (Q9Y4K0 26-774): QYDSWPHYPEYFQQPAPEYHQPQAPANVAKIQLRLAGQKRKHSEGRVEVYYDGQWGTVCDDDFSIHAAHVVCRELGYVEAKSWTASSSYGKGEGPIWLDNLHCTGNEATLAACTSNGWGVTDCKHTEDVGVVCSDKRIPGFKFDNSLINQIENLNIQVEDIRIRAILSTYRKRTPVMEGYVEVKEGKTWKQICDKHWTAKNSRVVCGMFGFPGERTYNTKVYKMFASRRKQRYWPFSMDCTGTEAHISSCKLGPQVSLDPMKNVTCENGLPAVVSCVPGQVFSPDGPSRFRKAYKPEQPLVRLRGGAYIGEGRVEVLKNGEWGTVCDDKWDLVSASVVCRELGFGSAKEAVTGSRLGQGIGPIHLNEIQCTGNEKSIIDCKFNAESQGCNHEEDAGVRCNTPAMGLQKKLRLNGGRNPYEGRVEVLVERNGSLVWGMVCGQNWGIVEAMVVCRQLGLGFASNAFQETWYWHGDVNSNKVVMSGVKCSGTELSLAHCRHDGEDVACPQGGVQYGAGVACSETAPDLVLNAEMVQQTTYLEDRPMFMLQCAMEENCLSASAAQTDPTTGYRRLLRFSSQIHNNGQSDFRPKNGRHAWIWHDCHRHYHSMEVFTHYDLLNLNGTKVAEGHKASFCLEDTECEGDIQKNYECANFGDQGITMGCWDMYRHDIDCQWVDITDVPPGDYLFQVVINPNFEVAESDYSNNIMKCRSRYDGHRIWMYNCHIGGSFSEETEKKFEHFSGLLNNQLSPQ
Description: (§1) The ability of compounds to inhibit one or more of the lysyl oxidases LOXL2 and/or LOXL3 was determined using a fluorometric assay. This assay measures the activity of lysyl oxidases by coupling the reaction with horseradish peroxidase-catalyzed […]. The activity assay protocol uses cadaverine as substrate that releases hydrogen peroxide upon transformation by the specific LOX family enzyme present in the sample. Hydrogen peroxide is in turn detected using a red fluorescence substrate for HRP-coupled reactions (Amplex Red Enzyme Assays, Thermo Scientific Fisher). This leads to increase in fluorescence that can be easily detected at Ex/Em=540/590 nm in a fluorescence microplate reader.
Enzymes: Recombinant human LOXL2 (lysyl oxidase like 2) and recombinant human LOXL3 (lysyl oxidase like 3) were purchased from R&D systems and assays were performed in 1.2 M urea, 50 mM sodium borate buffer pH 8.0, and 10 mM CaCl.
Reaction: Final concentration in the LOXL2 and LOXL3 assays were as following and performed in a total volume of […]:
Experimental procedure: 5 μl of freshly prepared reaction buffer were delivered to reaction wells. Compounds were resuspended in 100% DMSO at 10 mM and delivered into buffer using acoustic technology (Echo550; nanoliter range). A 3× solution of LOXL2 or LOXL3 in reaction buffer was prepared (“enzyme solution”) and 5 μL of enzyme solution was added into the reaction wells. Buffer only was added to column 1 for no protein control. Reactions were incubated for 30 minutes at 37° C. A 3×mixture of cadaverine, Amplex Red, and HRP (“Substrate/Detection Mix) was prepared and subsequently 5 μL of the mixture added to each reaction well. Progress of reactions was monitored for 60 minutes at 37° C. using Clariostar plate reader (ex 530-12, ems 600-40). For all activity assays, pan-LOX inhibitor CCT365623 (Tang et al, 2017) and LOXL2/LOXL3 inhibitor PAT-1251 (PharmaKea) were included as standards.
Data analysis: Slope of the linear portion of the progress curve was calculated using Clariostar software. Typical analysis interval was between 8-30 min, but varied between experiments. The background subtracted signals (No protein wells are considered as background) were converted to % activity relative to DMSO controls. Data was analyzed using GraphPad Prism 4 with “sigmoidal dose-response (variable slope)”; 4 parameters with Hill Slope. Constraints: Bottom=Constant equal to 0. Top=Must be less than 120.

[2] = target: T2, Bovine lysyl oxidase (LOX) (Bos taurus, UniProt P33072); experiment: LOX inhibition assay (fluorometric, cadaverine/Amplex Red/HRP); type: biochemical; conditions: IC50 class; bovine tendon LOX, cadaverine substrate; read-out: Activity Range LOX
T2 construct: from tissue; host or cells: adult bovine tendon
T2 sequence (P33072 170-418): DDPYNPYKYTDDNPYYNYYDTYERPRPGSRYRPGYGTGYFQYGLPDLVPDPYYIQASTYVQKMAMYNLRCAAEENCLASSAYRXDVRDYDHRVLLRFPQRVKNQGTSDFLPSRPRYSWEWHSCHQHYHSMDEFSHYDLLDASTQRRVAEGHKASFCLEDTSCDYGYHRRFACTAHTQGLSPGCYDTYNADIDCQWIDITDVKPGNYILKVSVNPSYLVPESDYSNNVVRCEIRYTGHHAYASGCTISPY
Description: as §1, with “prototypic LOX” for “one or more of the lysyl oxidases LOXL2 and/or LOXL3”, “prototypic” for “the specific”, “LOX” for “LOX family”
Enzyme: Bovine lysyl oxidase (LOX) was extracted by adapting the methodology from [Kagan et al. 1979 and Borel et al. 2001.] from bovine tendon: Frozen adult bovine tendon was placed in room temperature water to defrost, and then membranes were removed and the remaining tissue cut into 1 cm pieces. The material was first passed through a course mesh meat grinder, and this mince was passed through a fine mesh grinder. The mince was homogenized in 10 v/w of buffer (16 mM sodium phosphate buffer pH 7.8, 400 mM NaCl) using a Waring blender. The homogenate was centrifuged at 15,000×g for 15 min at 4° C. After centrifugation, the supernatant was discarded and the pellets resuspended in 10 volumes of the same buffer. The mixture was blended again and centrifuged with the same settings. This time the pellets were blended in 3 volumes of extraction buffer (16 mM sodium phosphate buffer pH 7.8) and left to incubate at 4° C. for 2 h. After this time, the slurry was centrifuged with the same settings as described above. The supernatant was used in an ultrafiltration step to remove large proteins by size exclusion through a 30 kDalton filter (EMD Millipore). The filtrate was mixed with DEAE Sephadex (GE Healthcare), or passed over a MonoQ FPLC column. After two washes, one in 16 mM sodium phosphate buffer pH 7.8, 380 mM NaCl, and another in 16 mM sodium phosphate buffer pH 7.8, the proteins were eluted with 16 mM sodium phosphate pH 7.8, 10 μM CuSO4, and 4 M urea. Fractions containing Lox activity were collected and stored frozen at −70° C.
Reaction: Final concentration in the LOX assay was as following and performed in a total volume of […]:
Experimental procedure: 7 μl of freshly prepared reaction buffer were delivered to reaction wells. Compounds were resuspended in 100% DMSO at 10 mM and delivered into buffer using acoustic technology (Echo550; nanoliter range). A 2.85× solution of LOX protein in reaction buffer was prepared (“LOX solution”) and 7 μl of LOX solution was added into the reaction wells. Buffer only was added to column 1 for no protein control. Reactions were incubated for 30 minutes at 37° C. A 3.33× mixture of cadaverine, Amplex Red, and HRP (“Substrate/Detection Mix) was prepared and subsequently 6 μL of the mixture was added to each reaction well. Progress of reactions was monitored for 120 minutes at 37° C. using Clariostar plate reader (ex530-12, ems 600-40). For all activity assays, pan-LOX inhibitor CCT365623 (Tang et al, 2017) and LOXL2/LOXL3 inhibitor PAT-1251 (PharmaKea) were included as standards.
Data analysis: Slope of the linear portion of the progress curve was calculated using Clariostar software. Typical analysis interval was between 20-50 min, but varied between experiments. The background subtracted signals (No protein wells were considered as background) were converted to % activity relative to DMSO controls. Data was analyzed using GraphPad Prism 4 with “sigmoidal dose-response (variable slope)”; 4 parameters with Hill Slope. Constraints: Bottom=Constant equal to 0. Top=Must be less than 120.

Row | IC50 [1] [µM] | IC50 [2] [µM] | SMILES
1 | > 30 | > 30 | CC(N)c1cccc(S(=O)(=O)N2C[C@H](C(=O)N3CCOCC3)C[C@@H](c3ccccc3)C2)c1 (mixture of isomers) [Example 102TR, trans-(1-((3-(1-Aminoethyl)phenyl)sulfonyl)-5-phenylpiperidin-3-yl)(morpholino)methanone 2,2,2-trifluoroacetate]
2 | > 30 | > 30 | CC(N)c1cccc(S(=O)(=O)N2C[C@H](C(=O)N3CCS(=O)(=O)CC3)C[C@@H](c3ccccc3)C2)c1 (mixture of isomers) [Example 106, trans-(1-((3-(1-Aminoethyl)phenyl)sulfonyl)-5-phenylpiperidin-3-yl) (1,1-dioxidothiomorpholino)methanone 2,2,2-trifluoroacetate]
3 | 1 to 30 | > 30 | NCc1cccc(S(=O)(=O)N2C[C@H](C(=O)N3CCOCC3)C[C@@H](C(F)(F)F)C2)c1 (racemic) [Example 110]
4 | 0.5 to 1 | > 30 | NCc1cnc(S(=O)(=O)N2C[C@@H](C(=O)N3CCOCC3)C[C@@H](c3ccccc3)C2)s1 (racemic) [Example 111, cis-(1-((5-(Aminomethyl)thiazol-2-yl)sulfonyl)-5-phenylpiperidin-3-yl)(morpholino)methanone 2,2,2-trifluoroacetate]
5 | ≤ 0.5 | 1 to 30 | NCc1cnc(S(=O)(=O)N2C[C@@H](C(=O)N3CCS(=O)(=O)CC3)C[C@@H](c3ccccc3)C2)s1 (racemic) [Example 112, cis-(1-((5-(Aminomethyl)thiazol-2-yl)sulfonyl)-5-phenylpiperidin-3-yl)(1,1-dioxidothiomorpholino)methanone 2,2,2-trifluoroacetate]
6 | 0.5 to 1 | 1 to 30 | NCc1cnc(S(=O)(=O)N2C[C@H](C(=O)N3CCS(=O)(=O)CC3)C[C@@H](c3ccccc3)C2)s1 (racemic) [Example 112T, trans-(1-((5-(Aminomethyl)thiazol-2-yl)sulfonyl)-5-phenylpiperidin-3-yl)(1,1-dioxidothiomorpholino)methanone 2,2,2-trifluoroacetate]
7 | ≤ 0.5 | 1 to 30 | CS(=O)(=O)N1CCN(C(=O)[C@H]2C[C@@H](c3ccccc3)CN(S(=O)(=O)c3ncc(CN)s3)C2)CC1 (racemic) [Example 113, cis-(1-((5-(Aminomethyl)thiazol-2-yl)sulfonyl)-5-phenylpiperidin-3-yl)(4-(methylsulfonyl)piperazin-1-yl)methanone 2,2,2-trifluoroacetate]
8 | ≤ 0.5 | 1 to 30 | CS(=O)(=O)N1CCN(C(=O)[C@@H]2C[C@@H](c3ccccc3)CN(S(=O)(=O)c3ncc(CN)s3)C2)CC1 (racemic) [Example 113T, trans-(1-((5-(Aminomethyl)thiazol-2-yl)sulfonyl)-5-phenylpiperidin-3-yl)(4-(methylsulfonyl)piperazin-1-yl)methanone 2,2,2-trifluoroacetate]
9 | 1 to 30 | > 30 | CS(=O)(=O)N1CCN(C(=O)[C@@H]2C[C@@H](c3ccccc3)CN(S(=O)(=O)c3cccc(CN)n3)C2)CC1 (racemic) [Example 116T, trans-(1-((6-(Aminomethyl)pyridin-2-yl)sulfonyl)-5-phenylpiperidin-3-yl)(4-(methylsulfonyl)piperazin-1-yl)methanone 2,2,2-trifluoroacetate]
10 | 1 to 30 | > 30 | CS(=O)(=O)N1CCN(C(=O)[C@H]2C[C@@H](c3ccccc3)CN(S(=O)(=O)c3cccc(CN)n3)C2)CC1 (racemic) [Example 116]
11 | ≤ 0.5 | ≤ 0.5 | NCc1ccc(S(=O)(=O)N2C[C@@H](C(=O)N3CCS(=O)(=O)CC3)C[C@@H](C3CCCCC3)C2)s1 (racemic) [Example 121, cis-(1-((5-(Aminomethyl)thiophen-2-yl)sulfonyl)-5-cyclohexylpiperidin-3-yl)(1,1-dioxidothiomorpholino)methanone 2,2,2-trifluoroacetate]
12 | 0.5 to 1 | 1 to 30 | NCc1cc(S(=O)(=O)N2C[C@@H](C(=O)N3CCS(=O)(=O)CC3)C[C@@H](c3ccccc3)C2)ccn1 (racemic) [Example 130, cis-(1-((2-(Aminomethyl)pyridin-4-yl)sulfonyl)-5-phenylpiperidin-3-yl)(1,1-dioxidothiomorpholino)methanone 2,2,2-trifluoroacetate]
